Activity calls are given as the source filed them. The calls are words filed in the database; no cut-off is given here.
Tests used:
Saccharomyces cerevisiae [1] = assay: Growth inhibition of Saccharomyces cerevisiae BY4741 at 150 uM up to 180 mins; type: functional, organism-based
Saccharomyces cerevisiae [2] = assay: Growth inhibition of Saccharomyces cerevisiae BY4741 at 300 uM up to 180 mins; type: functional, organism-based
Saccharomyces cerevisiae [3] = assay: Growth inhibition of Saccharomyces cerevisiae BY4741 at 450 uM up to 180 mins; type: functional, organism-based
Saccharomyces cerevisiae [4] = assay: Induction of G1 phase arrest in alpha factor treated Saccharomyces cerevisiae expressing TAP-tagged Clb5 assessed as inhibition of Clb5 expression at 450 uM after 3 hrs by FACS analysis; type: functional, organism-based
Saccharomyces cerevisiae [5] = assay: Reduction of budding index in Saccharomyces cerevisiae BY4741 at 450 uM relative to control; type: functional; design: scale not given: the % may be the effect or the level left
Saccharomyces cerevisiae [6] = assay: Induction of G1 phase arrest in Saccharomyces cerevisiae expressing TAP-tagged Cln1 assessed as down-regulation of Cln1 level at 450 uM after 3 hrs by Western blot analysis; type: functional, organism-based
Saccharomyces cerevisiae [7] = assay: Induction of G1 phase arrest in Saccharomyces cerevisiae expressing TAP-tagged Sic1 assessed as down-regulation of Sic1 level at 450 uM after 3 hrs by Western blot analysis; type: functional, organism-based
Saccharomyces cerevisiae [8] = assay: Induction of G1 phase arrest in Saccharomyces cerevisiae expressing TAP-tagged Clb5 assessed as down-regulation of Clb5 level at 450 uM after 3 hrs by Western blot analysis; type: functional, organism-based
Saccharomyces cerevisiae [9] = assay: Induction of log phase growth arrest in Saccharomyces cerevisiae BY4741; type: functional, organism-based
Saccharomyces cerevisiae [10] = assay: Induction of snf1 phosphorylation at T210 in Saccharomyces cerevisiae expressing Snf1-9myc at 450 uM after 3 hrs by Western blot analysis; type: functional, organism-based
Saccharomyces cerevisiae [11] = assay: Induction of G1 phase arrest in Saccharomyces cerevisiae expressing TAP-tagged Cln2 assessed as down-regulation of Cln2 level at 450 uM after 3 hrs by Western blot analysis; type: functional, organism-based
Saccharomyces cerevisiae [12] = assay: Cell cycle arrest in Saccharomyces cerevisiae BY4741 assessed as accumulation of cells at G1 phase at 450 uM after 3 hrs by FACS analysis; type: functional
Saccharomyces cerevisiae [13] = assay: Cell cycle arrest in Saccharomyces cerevisiae BY4741 assessed as accumulation of cells at metaphase with short spindles by FACS analysis; type: functional, organism-based
Saccharomyces cerevisiae [14] = assay: Cell cycle arrest in Saccharomyces cerevisiae BY4741 assessed as accumulation of cells at metaphase with post synthetic DNA content by FACS analysis; type: functional, organism-based

For `COc1ccc(/C=C/c2cc(OC)c(OC)c(OC)c2)cc1B(O)O`, the “growth inhibition (GI)” value (Saccharomyces cerevisiae [1]) was “inactive”, the “growth inhibition (GI)” value (Saccharomyces cerevisiae [2]) was “inactive” and the “growth inhibition (GI)” value (Saccharomyces cerevisiae [3]) was “inactive”.
`COc1ccc(/C=C\c2cc(OC)c(OC)c(OC)c2)cc1O` [COMBRETASTATIN A4] was tested, and the Activity (Saccharomyces cerevisiae [4]) was “Active”, the Activity (Saccharomyces cerevisiae [5]) was 42% and the Activity (Saccharomyces cerevisiae [6]) was “inactive”. The Activity (Saccharomyces cerevisiae [7]) was “inactive”, the Activity (Saccharomyces cerevisiae [8]) was “Active” and the Activity (Saccharomyces cerevisiae [9]) was “Dose-dependent effect”. For the same compound, the Activity (Saccharomyces cerevisiae [10]) was “Active”, the Activity (Saccharomyces cerevisiae [11]) was “inactive” and the Activity (Saccharomyces cerevisiae [12]) was 50%.
With `COc1ccc(/C=C/c2cc(OC)c(OC)c(OC)c2)cc1[N+](=O)[O-]` the “growth inhibition (GI)” value (Saccharomyces cerevisiae [1]) was “inactive”, the “growth inhibition (GI)” value (Saccharomyces cerevisiae [2]) was “inactive” and the “growth inhibition (GI)” value (Saccharomyces cerevisiae [3]) was “inactive”.
`COc1ccc(/C=C/c2cc(OC)c(OC)c(OC)c2)c(O)c1O` was tested, and the “growth inhibition (GI)” value (Saccharomyces cerevisiae [1]) was “inactive”, the “growth inhibition (GI)” value (Saccharomyces cerevisiae [2]) was “inactive” and the “growth inhibition (GI)” value (Saccharomyces cerevisiae [3]) was “inactive”.
With `COc1ccc(/C=C\c2cc(OC)c(OC)c(OC)c2)cc1N` the “growth inhibition (GI)” value (Saccharomyces cerevisiae [1]) was “inactive”, the “growth inhibition (GI)” value (Saccharomyces cerevisiae [2]) was “inactive” and the “growth inhibition (GI)” value (Saccharomyces cerevisiae [3]) was “inactive”.
With `COc1ccc(/C=C\c2cc(OC)c(OC)c(OC)c2)cc1B(O)O` the Activity (Saccharomyces cerevisiae [4]) was “Active”, the Activity (Saccharomyces cerevisiae [5]) was 42% and the Activity (Saccharomyces cerevisiae [6]) was “inactive”. For the same compound, the Activity (Saccharomyces cerevisiae [7]) was “inactive”, the Activity (Saccharomyces cerevisiae [8]) was “Active” and the Activity (Saccharomyces cerevisiae [9]) was “Dose-dependent effect”. For the same compound, the Activity (Saccharomyces cerevisiae [10]) was “Active”, the Activity (Saccharomyces cerevisiae [11]) was “inactive” and the Activity (Saccharomyces cerevisiae [12]) was 50%.
`COc1ccc(/C=C\c2cc(OC)c(OC)c(OC)c2)c(O)c1O` was tested, and the Activity (Saccharomyces cerevisiae [13]) was “Active”, the Activity (Saccharomyces cerevisiae [9]) was “Dose-dependent effect” and the Activity (Saccharomyces cerevisiae [14]) was “Active”.
In the case of `COc1ccc(/C=C\c2cc(OC)c(OC)c(OC)c2)cc1[N+](=O)[O-]`, the “growth inhibition (GI)” value (Saccharomyces cerevisiae [1]) is reported as “inactive”, the “growth inhibition (GI)” value (Saccharomyces cerevisiae [2]) is reported as “inactive” and the “growth inhibition (GI)” value (Saccharomyces cerevisiae [3]) is reported as “inactive”.
For `COc1ccc(/C=C\c2cc(OC)c(OC)c(OC)c2)cc1F`, the “growth inhibition (GI)” value (Saccharomyces cerevisiae [1]) was “inactive”, the “growth inhibition (GI)” value (Saccharomyces cerevisiae [2]) was “inactive” and the “growth inhibition (GI)” value (Saccharomyces cerevisiae [3]) was “inactive”.
`COc1ccc(/C=C/c2cc(OC)c(OC)c(OC)c2)cc1F` was tested, and the “growth inhibition (GI)” value (Saccharomyces cerevisiae [1]) was “inactive”, the “growth inhibition (GI)” value (Saccharomyces cerevisiae [2]) was “inactive” and the “growth inhibition (GI)” value (Saccharomyces cerevisiae [3]) was “inactive”.
`COc1ccc(/C=C/c2cc(OC)c(OC)c(OC)c2)cc1N` was tested, and the “growth inhibition (GI)” value (Saccharomyces cerevisiae [1]) was “inactive”, the “growth inhibition (GI)” value (Saccharomyces cerevisiae [2]) was “inactive” and the “growth inhibition (GI)” value (Saccharomyces cerevisiae [3]) was “inactive”.
For `COc1ccc(/C=C/c2cc(OC)c(OC)c(OC)c2)cc1O`, the “growth inhibition (GI)” value (Saccharomyces cerevisiae [1]) was “inactive”, the “growth inhibition (GI)” value (Saccharomyces cerevisiae [2]) was “inactive” and the “growth inhibition (GI)” value (Saccharomyces cerevisiae [3]) was “inactive”.

From ChEMBL document CHEMBL1157926, “Synthesis and biological evaluation of combretastatin analogs as cell cycle inhibitors of the G1 to S transition in Saccharomyces cerevisiae” (2010)
